# Laboratory results: patent US5527820A, “Antibiotics having immunosuppressive activity, delaminomycins and processes for the production of the same” (priority 1992, dated 1996)
# Legend:
# [1] = tested on: spleen cells (T cells activated by Concanavalin A); assay: Inhibitory activity against blastogenesis and proliferation of spleen cells caused by mitogen (Con A); format: cell-based, mouse (CDF1); conditions: for IC50: read-out: IC50 (inhibition of blastogenesis and proliferation of spleen lymphocyte caused by Con A); for activity inhibitory to the reaction of proliferation of mouse spleen cells activated with Concanavalin A: in vitro, result in words
# [2] = tested on: nylon wool-passed cells of spleen cells (responder cell; T cells); assay: Inhibitory activity to the mixed lymphocyte culture reaction; format: cell-based, rat (Fischer F344 responder; WKY stimulator); conditions: for IC50: 120 hours, 3H-thymidine incorporation, read-out: IC50 (inhibition of mixed lymphocyte culture reaction); for activity to inhibit the proliferation of the T cells (responder cell) in mixed lymphocyte culture reaction: in vitro, result in words
# [3] = tested on: delayed-type hypersensitivity (DTH); assay: Suppressive effect on delayed-type hypersensitivity (DTH) in mouse, intraperitoneal; format: in vivo, mouse (CDF1); conditions: intraperitoneal once a day, 0-4th day
# Excerpt: Suppressive effect of delaminomycins on delayed-type hypersensitivity (DTH) in mouse
# CDF1 mice were immunized by intravenously injecting sheep red blood cells (10^5 cells/mouse). On the 4th day after the immunization, sheep red blood cells (10^8 cells/mouse) were subcutaneously injected into the footpad of mice for the elicitation to cause a delayed-type hypersensitivity (DTH). Test compound was intraperitoneally administered to the mice once a day from the 0th day to 4th day after the immunization. On the 5th day after the elicitation the thickness of the mouse footpad was measured to estimate the suppressive effect of the test compound on the DTH response. The suppressive effect of the test compound was evaluated in terms of the inhibition rate (%) as calculated according to the following equation:
# (§1) Inhibition rate (%)=100-(T/C×100)
# wherein T denotes the thickness of the footpad when administering the test compound, but C denotes the thickness of the footpad when administering no test compound.
# Mouse leukemia L-1210 = assay: Inhibitory activity on proliferation of cancer cells; format: cell-based; conditions: L1210
# Mouse leukemia P388D1 = assay: as above; format: cell-based
# Mouse leukemia EL-4 = assay: as above; format: cell-based; conditions: EL4
# Mouse melanoma B-16 = assay: as above; format: cell-based; conditions: B16
# Human Lymphoma Jurkat = assay: as above; format: cell-based
# Candida tropicalis F-1 = assay: MIC, agar plate dilution method; format: cell-based; conditions: F1, 27° C., 42 hours, nutrient agar containing glucose
# [4] = tested on: Candida pseudotropicalis F-2; assay: MIC, agar plate dilution method; format: cell-based; conditions: Kluyveromyces marxianus, F2; 27° C., 42 hours, nutrient agar containing glucose
# Candida albicans 3147 = assay: MIC, agar plate dilution method; format: cell-based; conditions: 27° C., 42 hours, nutrient agar containing glucose
# Candida Yu-1200 = assay: MIC, agar plate dilution method; format: cell-based; conditions: YU1200, 27° C., 42 hours, nutrient agar containing glucose
# Candida krusei F-5 = assay: MIC, agar plate dilution method; format: cell-based; conditions: Pichia kudriavzevii, F5; 27° C., 42 hours, nutrient agar containing glucose
# [5] = tested on: Saccharomyces cerevisiae F-7; assay: MIC, agar plate dilution method; format: cell-based; conditions: F7, 27° C., 42 hours, nutrient agar containing glucose
# [6] = tested on: Cryptococcus neoformans F-10; assay: MIC, agar plate dilution method; format: cell-based; conditions: F10, 27° C., 42 hours, nutrient agar containing glucose
# Cochliobolus miyabeanus = assay: MIC, agar plate dilution method; format: cell-based; conditions: Bipolaris oryzae; 27° C., 42 hours, nutrient agar containing glucose
# Description: (§2) Delaminomycins A, B, C, A2, B2 and C2 according to this invention further have an antibacterial activity against a variety of bacteria. The minimum growth inhibitory concentrations (MIC) (μg/ml) of the novel antibiotics of this invention on various bacteria and fungi as measured by the agar plate dilution method are shown in Table 5a, Table 5b, Table 5c and Table 5d below.
# (§3) Evaluated after culturing at 27° C. for 42 hours in nutrient agar
# (§4) medium containing glucose.
# Xanthomonas citri = assay: MIC, agar plate dilution method; format: cell-based; conditions: 27° C., 42 hours, nutrient agar containing glucose
# Description: as §2, §3, §4
# Piricularia oryzae = assay: microbe, parasite or virus in culture; format: cell-based; conditions: 42 h
# Pellicularia sasakii = assay: MIC, agar plate dilution method; format: cell-based; conditions: 27° C., 42 hours, nutrient agar containing glucose
# Aspergillus niger F-16 = assay: MIC, agar plate dilution method; format: cell-based; conditions: F16, 27° C., 42 hours, nutrient agar containing glucose
# [7] = tested on: Trichophyton asteroides 429; assay: MIC, agar plate dilution method; format: cell-based; conditions: 27° C., 42 hours, nutrient agar containing glucose
# [8] = tested on: Trichophyton mentagrophytes F-15 (833); assay: MIC, agar plate dilution method; format: cell-based; conditions: 27° C., 42 hours, nutrient agar containing glucose
# [9] = Acute toxicity (LD50) in ICR mice; conditions: mouse, in vivo, ip, intraperitoneally
# Gram-positive bacteria = assay: Antibacterial activity to Gram-positive bacteria; format: cell-based; conditions: result in words
# Excerpt: as §2
# Solubility = conditions: result in words; for Solubility: various solvents
# [10] = Absorption into the digestive tracts on oral administration; conditions: result in words
# [11] = tested on: delayed-type hypersensitivity (DTH); assay: Suppressive effect on delayed-type hypersensitivity (DTH) in mouse, oral; format: in vivo, mouse (CDF1); conditions: 2.0 mg/mouse, oral once a day, 0~4th day
# Description: CDF1 mice were immunized by intravenously injecting sheep red blood cells (10^5 cells/mouse). On the 4th day after the immunization, sheep red blood cells (10^8 cells/mouse) were subcutaneously injected into the footpad of mice for the elicitation to cause a delayed-type hypersensitivity. Test compound was orally administered to the mice once a day from the 0 th day to the 4 th day after the immunization. On the 5th day after the elicitation, the thickness of the mouse footpad was measured to estimate the suppressive effect of the test compound on DTH. The suppressive effect of the test compound was evaluated in terms of the inhibition rate (%) as calculated according to the following equation:
# as §1
# wherein T denotes the thickness of the footpad when the test compound was administered, but C denotes the thickness of the footpad when no test compounnd was administered.
smiles,measurement,setting,value
CCC(O)C(C)/C=C/C=C/C(O)CC1C=CC2CC(C)CC(C)C2C1(C)C(=O)C1C(=O)NC(O)C1=O (stereo not shown) [Delaminomycin A],IC50,"[1]; Mus musculus, T-cell",17.5 µg/mL
same,inhibition at 1.56 µg/mL,"[1]; Mus musculus, T-cell, 1.56 μg/ml test compound, read-out: Inhibition rate",0%
same,inhibition at 6.25 µg/mL,"[1]; Mus musculus, T-cell, 6.25 μg/ml test compound, read-out: Inhibition rate",31%
same,inhibition at 25 µg/mL,"[1]; Mus musculus, T-cell, 25 μg/ml test compound, read-out: Inhibition rate",57%
same,inhibition at 100 µg/mL,"[1]; Mus musculus, T-cell, 100 μg/ml test compound, read-out: Inhibition rate",88%
same,activity inhibitory to the reaction of proliferation of mouse spleen cells activated with Concanavalin A,[1],exhibit an activity inhibitory to the reaction of proliferation of mouse spleen cells
same,inhibition at 0.1 µg/mL,"[2]; Rattus norvegicus, T-cell, 0.10 μg/ml test compound, read-out: Inhibition rate",17.6%
same,inhibition at 0.39 µg/mL,"[2]; Rattus norvegicus, T-cell, 0.39 μg/ml test compound, read-out: Inhibition rate",32.8%
same,inhibition at 1.56 µg/mL,"[2]; Rattus norvegicus, T-cell, 1.56 μg/ml test compound, read-out: Inhibition rate",17.5%
same,inhibition at 6.25 µg/mL,"[2]; Rattus norvegicus, T-cell, 6.25 μg/ml test compound, read-out: Inhibition rate",55.3%
same,inhibition at 25 µg/mL,"[2]; Rattus norvegicus, T-cell, 25 μg/ml test compound, read-out: Inhibition rate",95%
same,inhibition at 100 µg/mL,"[2]; Rattus norvegicus, T-cell, 100 μg/ml test compound, read-out: Inhibition rate",96.4%
same,IC50,"[2]; Rattus norvegicus, T-cell",8.6 µg/mL
same,activity to inhibit the proliferation of the T cells (responder cell) in mixed lymphocyte culture reaction,[2],have an activity to inhibit the reaction of proliferation of the T cells
same,Inhibition rate (DTH footpad thickness),[3]; 15.6 μg/mouse,0.1%
same,Inhibition rate (DTH footpad thickness),[3]; 62.5 μg/mouse,52.8%
same,Inhibition rate (DTH footpad thickness),[3]; 250 μg/mouse,85.3%
same,Inhibition rate (DTH footpad thickness),[3]; 1000 μg/mouse,99.2%
same,IC50,Mouse leukemia L-1210,> 100 µg/mL
same,IC50,Mouse leukemia P388D1,14 µg/mL
same,IC50,Mouse leukemia EL-4,17.9 µg/mL
same,IC50,Mouse melanoma B-16,21.1 µg/mL
same,IC50,Human Lymphoma Jurkat,3.6 µg/mL
same,MIC,Candida tropicalis F-1,> 100 µg/mL
same,MIC,[4],> 100 µg/mL
same,MIC,Candida albicans 3147,> 100 µg/mL
same,MIC,Candida Yu-1200,> 100 µg/mL
same,MIC,Candida krusei F-5,> 100 µg/mL
same,MIC,[5],> 100 µg/mL
same,MIC,[6],> 100 µg/mL
same,MIC,Cochliobolus miyabeanus,> 100 µg/mL
same,MIC,Xanthomonas citri,> 100 µg/mL
same,MIC,Piricularia oryzae,> 100 µg/mL
same,MIC,Pellicularia sasakii,> 100 µg/mL
same,MIC,Aspergillus niger F-16,> 100 µg/mL
same,MIC,[7],> 100 µg/mL
same,MIC,[8],> 100 µg/mL
same,LD50,[9],> 500 mg/kg
same,antibacterial activity to Gram-positive bacteria,Gram-positive bacteria,antibacterial activity to Gram-positive bacteria
same,Solubility,Solubility,"soluble in methanol but slightly soluble or insoluble in water, acetone, ethyl ether and n-hexane"
same,Solubility in water,Solubility,barely soluble in water
same,absorption into the digestive tracts / oral absorption,[10],hardly absorbed into the digestive tracts
CCC(O)C(C)/C=C/C=C/C1CC2C=CC3CC(C)CC(C)C3C2(C)C(=O)C12C(=O)NC(OC)C2=O (stereo not shown) [Delaminomycin B2],IC50,"[1]; Mus musculus, T-cell",0.85 µg/mL
same,inhibition at 0.2 µg/mL,"[1]; Mus musculus, T-cell, 0.20 μg/ml test compound, read-out: Inhibition rate",12.3%
same,inhibition at 0.78 µg/mL,"[1]; Mus musculus, T-cell, 0.78 μg/ml test compound, read-out: Inhibition rate",47.6%
same,inhibition at 3.1 µg/mL,"[1]; Mus musculus, T-cell, 3.1 μg/ml test compound, read-out: Inhibition rate",92.7%
same,inhibition at 12.5 µg/mL,"[1]; Mus musculus, T-cell, 12.5 μg/ml test compound, read-out: Inhibition rate",94.1%
same,inhibition at 50 µg/mL,"[1]; Mus musculus, T-cell, 50 μg/ml test compound, read-out: Inhibition rate",96.7%
same,activity inhibitory to the reaction of proliferation of mouse spleen cells activated with Concanavalin A,[1],exhibit an activity inhibitory to the reaction of proliferation of mouse spleen cells
same,inhibition at 0.05 µg/mL,"[2]; Rattus norvegicus, T-cell, 0.05 μg/ml test compound, read-out: Inhibition rate",0%
same,inhibition at 0.2 µg/mL,"[2]; Rattus norvegicus, T-cell, 0.20 μg/ml test compound, read-out: Inhibition rate",12.3%
same,inhibition at 0.78 µg/mL,"[2]; Rattus norvegicus, T-cell, 0.78 μg/ml test compound, read-out: Inhibition rate",47.6%
same,inhibition at 3.1 µg/mL,"[2]; Rattus norvegicus, T-cell, 3.1 μg/ml test compound, read-out: Inhibition rate",92.7%
same,inhibition at 12.5 µg/mL,"[2]; Rattus norvegicus, T-cell, 12.5 μg/ml test compound, read-out: Inhibition rate",94.1%
same,inhibition at 50 µg/mL,"[2]; Rattus norvegicus, T-cell, 50 μg/ml test compound, read-out: Inhibition rate",96.7%
same,IC50,"[2]; Rattus norvegicus, T-cell",8.6 µg/mL
same,activity to inhibit the proliferation of the T cells (responder cell) in mixed lymphocyte culture reaction,[2],have an activity to inhibit the reaction of proliferation of the T cells
same,Inhibition rate (DTH footpad thickness),[3]; 15.6 μg/mouse,-3.3%
same,Inhibition rate (DTH footpad thickness),[3]; 62.5 μg/mouse,35.4%
same,Inhibition rate (DTH footpad thickness),[3]; 250 μg/mouse,36.2%
same,Inhibition rate (DTH footpad thickness),[3]; 1000 μg/mouse,51.3%
same,Inhibition rate (DTH footpad thickness),[11],18.4%
same,IC50,Mouse leukemia L-1210,8 µg/mL
same,IC50,Mouse leukemia P388D1,12.1 µg/mL
same,IC50,Mouse leukemia EL-4,6.8 µg/mL
same,IC50,Mouse melanoma B-16,17.9 µg/mL
same,IC50,Human Lymphoma Jurkat,11.4 µg/mL
same,MIC,Candida tropicalis F-1,> 100 µg/mL
same,MIC,[4],> 100 µg/mL
same,MIC,Candida albicans 3147,> 100 µg/mL
same,MIC,Candida Yu-1200,> 100 µg/mL
same,MIC,Candida krusei F-5,> 100 µg/mL
same,MIC,[5],> 100 µg/mL
same,MIC,[6],> 100 µg/mL
same,MIC,Cochliobolus miyabeanus,> 100 µg/mL
same,MIC,Xanthomonas citri,> 100 µg/mL
same,MIC,Piricularia oryzae,> 100 µg/mL
same,MIC,Pellicularia sasakii,> 50 µg/mL
same,MIC,Aspergillus niger F-16,> 100 µg/mL
same,MIC,[7],> 100 µg/mL
same,MIC,[8],> 100 µg/mL
same,antibacterial activity to Gram-positive bacteria,Gram-positive bacteria,antibacterial activity to Gram-positive bacteria
same,Solubility,Solubility,"soluble in methanol, ethyl acetate, chloroform and ethyl ether but slightly soluble or insoluble in n-hexane and water"
same,Solubility in water,Solubility,barely soluble in water
same,absorption into the digestive tracts / oral absorption,[10],hardly absorbed into the digestive tracts
